In the supplement of paper PMC10307832 one finds relative viability data, which are given here for 1 cell line.

What all share (experiment): relative viability (nuclei count vs DMSO), 5 days (fraction); higher = more cells survive
Compound in the experiment “RAF265 + Alpelisib”: Cn1c(Nc2ccc(C(F)(F)F)cc2)nc2cc(Oc3ccnc(-c4ncc(C(F)(F)F)[nH]4)c3)ccc21 [RAF265] + Cc1nc(NC(=O)N2CCC[C@H]2C(N)=O)sc1-c1ccnc(C(C)(C)C(F)(F)F)c1 [Alpelisib] (partner 2 µM)
The essentials:
(§1)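 For relative viability, nuclei counts in treated wells were divided by those in vehicle wells. Lung cancer cell lines had been pin-tool dosed in 1536-well plates the day after seeding and cultured for 5 days, then fixed and stained in one step (final 0.05% Triton X-100, 1% formaldehyde, 1 ug/ml Hoechst) and imaged at 4×. Doses were one drug alone or a fixed anchor-drug dose plus five library-drug doses (not always all listed) in √10 steps, and values are duplicate-plate medians.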

Compound in the experiment “Doramapimod + Foretinib”: Cc1ccc(-n2nc(C(C)(C)C)cc2NC(=O)Nc2ccc(OCCN3CCOCC3)c3ccccc23)cc1 [Doramapimod] + COc1cc2c(Oc3ccc(NC(=O)C4(C(=O)Nc5ccc(F)cc5)CC4)cc3F)ccnc2cc1OCCCN1CCOCC1 [Foretinib] (partner 0.25 µM)
The gist of the method: as §1

Compound in the experiment “Doramapimod + Linsitinib”: Cc1ccc(-n2nc(C(C)(C)C)cc2NC(=O)Nc2ccc(OCCN3CCOCC3)c3ccccc23)cc1 [Doramapimod] + C[C@]1(O)C[C@@H](c2nc(-c3ccc4ccc(-c5ccccc5)nc4c3)c3c(N)nccn32)C1 [Linsitinib] (partner 1 µM)
The essentials:
as §1

Compound in the experiment “RAF265 + Tozasertib”: Cn1c(Nc2ccc(C(F)(F)F)cc2)nc2cc(Oc3ccnc(-c4ncc(C(F)(F)F)[nH]4)c3)ccc21 [RAF265] + Cc1cc(Nc2cc(N3CCN(C)CC3)nc(Sc3ccc(NC(=O)C4CC4)cc3)n2)n[nH]1 [Tozasertib] (partner 0.1 µM)
The gist of the method: as §1

In the case of UMC-11, the relative viability in the experiment with RAF265 + Alpelisib (first compound 0.01 µM) worked out at 0.972; in the experiment with RAF265 + Alpelisib (first compound 0.03162 µM), 0.981; with RAF265 + Alpelisib (first compound 0.1 µM), 0.969; with RAF265 + Alpelisib (first compound 0.3162 µM) it was 1.14; with RAF265 + Alpelisib (first compound 1 µM) it was 0.937; in the experiment with Doramapimod + Foretinib (first compound 0.02 µM), 0.954. In addition, the relative viability in the experiment with Doramapimod + Foretinib (first compound 0.06325 µM) is 0.936; with Doramapimod + Foretinib (first compound 0.2 µM), 0.932; with Doramapimod + Foretinib (first compound 0.6325 µM), 0.988; with Doramapimod + Foretinib (first compound 2 µM) it was 0.982; in the experiment with Doramapimod + Linsitinib (first compound 0.02 µM), 0.946; with Doramapimod + Linsitinib (first compound 0.06325 µM) it was 0.992. The relative viability with Doramapimod + Linsitinib (first compound 0.2 µM) was 1.03; in the experiment with Doramapimod + Linsitinib (first compound 0.6325 µM) it was 1; with Doramapimod + Linsitinib (first compound 2 µM), 0.718; in the experiment with RAF265 + Tozasertib (first compound 0.01 µM), 0.191; with RAF265 + Tozasertib (first compound 0.03162 µM) it was 0.212; in the experiment with RAF265 + Tozasertib (first compound 0.1 µM) it was 0.201. Also, the relative viability with RAF265 + Tozasertib (first compound 0.3162 µM) came out at 0.19; in the experiment with RAF265 + Tozasertib (first compound 1 µM), 0.174.
